One assay has as its system YB5 cells. As to the kind of experiment: GFP reactivation in YB5 cell-based system (flow cytometry). More on the design: species or system human. The method, then:
YB5 cells are derived from SW48 cells (human colon cancer cell line), and contain a single insertion of a DNA hypermethylated cytomegalovirus (CMV) promoter driving the green fluorescent protein (GFP) gene, as previously described. YB5 cells are cultured in L-15 medium supplemented with 10% fetal bovine serum and grown in log-phase in 1% CO2 atmosphere. YB5 cells were authenticated by DNA fingerprinting prior to drug screening and validation experiments. GFP expression in YB5 cells is silenced in >99.9% of the cells due to the CMV promoter DNA hypermethylation and repressive chromatin marks around the transcriptional start site. The human HCT116 colon cancer-derived GFP-reporter system, comprising a GFP gene under the control of an endogenously hypermethylated SFRP1 gene promoter, was kindly provided by Dr. Stephen Baylin (Johns Hopkins University). These cells are cultured in McCoy’s 5A medium supplemented with 10% fetal bovine serum and grown in log-phase in 5% CO2 atmosphere at 37 °C. The 451-Lu-BR melanoma cells were a kind gift from Dr. Raza Zaidi (Fels Institute for Cancer Research and Molecular Biology, Temple University School of Medicine, Philadelphia). These cells are derived from parental 451-LU cells that have acquired resistance to BRAF inhibitors. The 451-Lu-BR cells were cultured at 37 °C in Dulbecco’s Modified Eagle Medium (DMEM) supplemented with 10% fetal bovine serum, L-alanyl-L-glutamine (2 mM), and gentamycin (50 µg/mL) in 5% CO2 at 37 °C. The natural drug library (natural product set II) containing 120 compounds was obtained from the National Cancer Institute Developmental Therapeutics Program. Natural compounds were dissolved in DMSO (10 mM) in 96-well plates that were kept at −80°C until use. Toyocamycin, analogues of toyocamycin (sangivamycin, tubercidin, 3-deaza-adenosine, DZNep), CDK inhibitors, and epigenetic drugs (decitabine, SAHA, trichostatin A, depsipeptide) were purchased from Sigma-Aldrich (St. Louis, MO, USA,) for validation studies, dissolved in DMSO, and kept at −80 °C until use.
YB5 cells were seeded at 30,000 cell/mL in 96-well plates (6000 cells/well) and treated 3 days after seeding. Cells were exposed to 120 natural compounds in 5 different experimental conditions: (1) 72 h exposure at 10 µM followed by 24 h recovery period prior to analysis; (2) 24 h treatment at 50 µM prior to analysis; (3) 72 h exposure at 10 µM of the compound library followed by 24 h treatment with HDAC inhibitor trichostatin A (200 nM) prior to analysis; (4) 72 h exposure at 10 µM in simultaneous combination with decitabine (50 nM) followed by 24 h recovery period prior to analysis; and (5) 72 h treatment with decitabine (50 nM) followed by 24 h exposure with the natural compound library (50 µM) prior to analysis. The scheme of different dose schedules is shown Figure S1A. During screening, drugs and cell culture media were replaced every day. To ensure the quality and the reproducibility of the screen, each 96-well plate was designed to include 80 natural compounds, 4 untreated wells, 4 wells treated with decitabine (50 nM, 72 h), 4 wells treated with trichostatin A (200 nM, 24 h), and their combination with decitabine (50 nM, 72 h) followed by trichostatin A treatment (200 nM, 24 h) prior to flow cytometry analysis. The percentage of GFP-expressing cells in control wells (untreated or treated with known epigenetic drugs) was measured and was reproducible between different plates.
After treatment, YB5 cells were trypsinized for 15 min and resuspended in L-15 media containing propidium iodide (PI) to stain dead cells. GFP expression and PI staining were quantified by a BD LSR II flow cytometer (BD Biosciences, San Jose, CA, USA). A maximum of 10,000 cells was analyzed per well. Validations were performed using a Millipore Guava flow cytometer (EMD, Millipore, Burlington, MA, USA). […]

The target of a further assay is T1, CDK7/Cyclin H/MAT1 (Homo sapiens, UniProt P50613).
T1 construct: purchased BPS Bioscience
T1 sequence (P50613 whole entry): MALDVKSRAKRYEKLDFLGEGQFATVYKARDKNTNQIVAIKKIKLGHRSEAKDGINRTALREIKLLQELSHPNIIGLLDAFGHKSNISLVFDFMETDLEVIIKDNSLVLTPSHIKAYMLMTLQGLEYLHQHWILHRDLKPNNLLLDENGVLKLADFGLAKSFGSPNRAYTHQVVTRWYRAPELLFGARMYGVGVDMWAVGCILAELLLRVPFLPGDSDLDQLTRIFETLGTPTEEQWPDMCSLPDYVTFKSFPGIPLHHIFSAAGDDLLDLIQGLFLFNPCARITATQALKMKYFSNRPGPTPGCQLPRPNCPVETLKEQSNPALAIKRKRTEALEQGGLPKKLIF
T1 sequence (P51946 whole entry partner): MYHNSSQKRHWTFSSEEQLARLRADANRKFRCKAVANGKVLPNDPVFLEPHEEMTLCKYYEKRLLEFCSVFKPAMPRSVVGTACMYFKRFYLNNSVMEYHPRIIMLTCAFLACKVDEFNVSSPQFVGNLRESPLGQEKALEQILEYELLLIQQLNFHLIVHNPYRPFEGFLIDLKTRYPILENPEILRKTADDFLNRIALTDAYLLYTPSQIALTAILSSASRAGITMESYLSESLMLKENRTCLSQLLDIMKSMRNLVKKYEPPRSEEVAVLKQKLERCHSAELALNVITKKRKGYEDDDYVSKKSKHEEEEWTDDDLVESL
T1 sequence (P51948 whole entry partner): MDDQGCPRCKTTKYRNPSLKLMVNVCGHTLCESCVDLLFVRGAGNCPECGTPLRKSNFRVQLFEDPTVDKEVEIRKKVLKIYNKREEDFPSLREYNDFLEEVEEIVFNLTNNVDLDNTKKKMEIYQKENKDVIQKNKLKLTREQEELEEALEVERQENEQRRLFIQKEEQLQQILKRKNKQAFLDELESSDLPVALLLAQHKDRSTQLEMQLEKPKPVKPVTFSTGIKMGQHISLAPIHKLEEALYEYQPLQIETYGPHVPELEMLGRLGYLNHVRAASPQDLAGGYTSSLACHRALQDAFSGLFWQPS
As to the kind of experiment: in vitro kinase assay CDK7/Cyclin H/MAT1 (ADP-Glo). The assay is classed as biochemical. The method, then:
(§1) The in vitro enzymatic assays were conducted at BPS Bioscience. CDK9/Cyclin T1, CDK2/Cyclin 2A, CDK4/Cyclin D3, and CDK6/Cyclin D3 enzymatic activities were tested with an ATP Kinase-Glo Plus Luminescence kinase assay kit (Promega, V6073, Madison, WI, USA), while the CDK7/Cyclin H/MAT1 activities were tested using ADP-Glo Kinase (Promega, V6930). These assays measure kinase activity by quantifying the amount of ATP or ADP remaining in solution following a kinase reaction. The luminescent signal from the assay is correlated to the amount of ATP or ADP present and is inversely correlated to the kinase activity. The compounds were diluted to 10% DMSO and were added to the reaction so that the final concentration of DMSO was 1% in all reactions. All enzymatic reactions were conducted at 30 °C for 60 min. […] After the enzymatic reaction, the luminescence signal was measured using a BioTek Synergy 2 microplate reader (Agilent, Santa Clara, CA, USA). Kinase activity assays were performed in duplicate at each concentration and the percent of kinase activity was calculated as a ratio of luminescence intensities in the absence or in presence of the compounds. […] IC50 values were determined by the concentration causing a half-maximal percent activity (BPS Bioscience, San Diego, CA, USA).

The target in a further assay is T2, CDK2/Cyclin 2A (Homo sapiens, UniProt P24941).
T2 construct: purchased BPS Bioscience
As to the kind of experiment: biochemical. To be noted: 10 µM ATP, 30 °C, 60 min. The method, then:
as §1

Assay [1] relates to CMV promoter in YB5 cells. Put plainly: DNA methylation by bisulfite pyrosequencing, CMV promoter. Format: cell-based, human. Particulars: 0.05–50 µM, 72 h. The text has this: We analyzed DNA methylation levels on the CMV promoter region and LINE-1 repeated elements (as a marker of global DNA methylation level). After DNA extraction and bisulfite conversion, PCR amplification of regions of interest and pyrosequencing were achieved as previously described.

On to `N#Cc1cn([C@@H]2O[C@H](CO)[C@@H](O)[C@H]2O)c2ncnc(N)c12` [toyocamycin, 7-Deaza-7-cyanoadenosine], for which the “GFP-expressing YB5 cells” value with YB5 cells (250 nM, 48 h) is reported as “about 10%”. For the same compound, the “YB5 cells expressing GFP” value in the assay on YB5 cells (5 µM, 72 h) is reported as “More than 60%”. Further, the “GFP expression, % of YB5 cells” value with YB5 cells (sequential combination with decitabine, toyocamycin 0.5–5 µM) was “up to 40%”. Also, in the assay on YB5 cells (toyocamycin 250 nM 48 h, MC180295 500 nM 48 h), the “GFP-expressing cells with CDK9 overexpression (HA-CDK9, FLAG-CDK9)” value is given as “reduction in the number of GFP-expressing cells”. Also, the IC50 on CDK7/Cyclin H/MAT1 came to 2800 nM; on CDK2/Cyclin 2A, 670 nM. For the same compound, the “times less enzymatic inhibition of CDK7 as compared to CDK9” value on CDK7/Cyclin H/MAT1 (CDK7/Cyclin H/MAT1 vs CDK9/CycT1) came to 35 times. Further, the “DNA methylation on CMV promoter” value in assay [1] is reported as “no changes in DNA methylation”.
